This is an account of results in patent US9988348B1, “Synthesis and antimicrobial use of a trithiocarbonate derivative” (KING SAUD UNIVERSITY, priority 2017, dated 2018).

Experiment in all cases: disk diffusion assay, inhibition zone
Assay type in all cases: cell-based
(Agar diffusion results depend on both activity and mobility in agar.)

The subject of assay [1] is Penicillum chrysogenum AUMC 9476. The settings on record: read-out: Inhibition zone diameter of standard antimicrobial agents; for zone of inhibition at 10 µg/disc: P. chrysoginum, 10 μg/disk. As to the method:
(§1) To evaluate antimicrobial activity of the compound 4, synthesized in our laboratory as novel anti-bacterial and anti-fungal agents, the inhibition zone diameter (mm) and the minimal inhibitory concentration were determined according to (Andrews 2001; Hudzicki 2009). The test carried out on several clinical microorganisms included Gram positive bacteria (Staphylococcus aureus ATCC and Streptococcus mutans ATCC 35668), Gram negative bacteria (Escherichia coli ATCC 25922, Salmonella typhimurium ATCC 14028 and Neisseria meningitides ATCC 1302); yeasts (Candid albicans ATCC 60193, Cryptococcus neoformans Wild strain and Candida parapsilosus ATCC 22019) and molds (Aspergillus fumigatus AUMC 8794, Penicillum chrysogenum AUMC 9476 and Fusarium sp.)
(§2) The clinical microorganisms were cultivated at least three times on suitable culture medium and incubating conditions before susceptibility test. The concentration of microbial inoculation suspensions in sterile sodium chloride solution (0.89%) were adjusted to 0.65 at 620 nm by spectrophotometer. […]
(§3) After that, the disks were dried at 25° C. under sterile conditions by safety biological cabinet. A Mueller-Hinton agar (MHA) (Scharlau Microbiogy, Spain) and a potato dextrose agar (PDA) (Scharlau, Spain) were used to perform antibacterial and antifungal test respectively. The media were prepared according to manufacturer's guidelines. To prepare one liter of MHA and one liter of PDA, 21 grams of MHA and 39 grams of PDA were dissolved in one liter of sterile distilled water, followed by sterilization at 121° C. for 15 minutes by an autoclave (HL-321, Taiwan). The sterilized media were poured in sterile plastic Petri dishes at 50° C. The plates were allowed to let the medium solidify at room temperature. 0.1 ml of microbial inoculation suspensions were spread on dried surface of medium and were kept at 25° C. for 5-10 minutes. The compound 4 and standard antimicrobial drugs discs (Table 1) were dispensed on the surface of inoculated media. The tested bacteria and fungi were incubated at 37±1° C. for 19-22 hours and at 25±1 for 48-72 hours respectively. After the incubation, the diameter of inhibition zone (millimeter) resulting from the biological activity of compound were recorded.

The test system of assay [2] is Candida parapsilosus ATCC 22019. The settings on record: for susceptibility of the strain to the standard drug, in words / zone of inhibition at 10 µg/disc: C. parasilosus; for zone of inhibition at 10 µg/disc: ATCC22019, 10 μg/disk, read-out: Inhibition zone diameter of standard antimicrobial agents. As to the method: as §1, §2, §3
Assay [3] concerns Aspergillus fumigatus AUMC 8794. The settings on record: Aspergillus fumigatus, AUMC8794, A. fumigatus, read-out: Inhibition zone diameter of standard antimicrobial agents; for zone of inhibition at 10 µg/disc: 10 μg/disk. As for the experimental part:
as §1, §2, §3

Assay [4] has as its system Candid albicans ATCC 60193. The settings on record: Candida albicans, ATCC60193, C. albicans, read-out: Inhibition zone diameter of standard antimicrobial agents; for zone of inhibition at 10 µg/disc: 10 μg/disk. As to the method:
as §1, §2, §3

The subject of assay [5] is Cryptococcus neoformans Wild strain. The settings on record: for zone of inhibition at 10 µg/disc: C. neoformasn, 10 μg/disk. As to the method:
as §1, §2, §3

The next assay deals with Fusarium sp. The settings on record: read-out: Inhibition zone diameter of standard antimicrobial agents; for zone of inhibition at 10 µg/disc: Fusarium sp., 10 μg/disk. As for the experimental part:
as §1, §2, §3

For assay [6], the system named is Staphylococcus aureus ATCC. The settings on record: Staphylococcus aureus, S. aureus, read-out: Inhibition zone diameter of standard antimicrobial agents; for zone of inhibition at 10 µg/disc: 10 μg/disk. As to the method: as §1, §2, §3
For assay [7], the system named is Streptococcus mutans ATCC 35668. The settings on record: Streptococcus mutans, ATCC35668, S. mutans, read-out: Inhibition zone diameter of standard antimicrobial agents; for zone of inhibition at 10 µg/disc: 10 μg/disk. As to the method: as §1, §2, §3
Assay [8] concerns Escherichia coli ATCC 25922. The settings on record: Escherichia coli, ATCC25922, E. coli, read-out: Inhibition zone diameter of standard antimicrobial agents; for zone of inhibition at 10 µg/disc: 10 μg/disk. As to the method: as §1, §2, §3
Assay [9] relates to Salmonella typhimurium ATCC 14028. The settings on record: Salmonella enterica, Sa. typhimurium, read-out: Inhibition zone diameter of standard antimicrobial agents; for zone of inhibition at 10 µg/disc: 10 μg/disk. As for the experimental part: as §1, §2, §3
For assay [10], the system named is Neisseria meningitides ATCC 1302. The settings on record: Neisseria, ATCC1302, N. meningitides, read-out: Inhibition zone diameter of standard antimicrobial agents; for zone of inhibition at 10 µg/disc: 10 μg/disk.
The mark [11] stands for this setting: Cryptococcus neoformans, read-out: Inhibition zone diameter of standard antimicrobial agents.

Take `Clc1ccccc1C(c1ccccc1)(c1ccccc1)n1ccnc1` [Canesten]: the zone of inhibition at 10 µg/disc was found to be 30 mm in [1]; 0 mm in [2] (Candida); 23 mm in assay [3]; 26 mm in [4]; 25 mm in assay [5] (setting [11]); 15 mm in the assay with Fusarium sp.. The “susceptibility of the strain to the standard drug, in words” value (shortened to “susceptibility of the strain”) in [2] is given as “resistant”.
For the compound `CC[C@H](C)C[C@H](C)CCCCCCCCC(=O)N[C@H]1C[C@@H](O)[C@@H](NCCN)NC(=O)[C@@H]2[C@@H](O)CCN2C(=O)[C@H]([C@H](O)CCN)NC(=O)[C@H]([C@H](O)[C@@H](O)c2ccc(O)cc2)NC(=O)[C@@H]2C[C@@H](O)CN2C(=O)[C@H]([C@@H](C)O)NC1=O` [Caspofungin], the zone of inhibition at 10 µg/disc was 0 mm in assay [1]; 0 mm in [2] (Candida); 20 mm in assay [3]; 20 mm in assay [4]; 0 mm in assay [5] (setting [11]); 0 mm in the assay on Fusarium sp.. The “susceptibility of the strain” value is “resistant” in assay [2] and “resistance” in assay [5] (Cr. neoformans strain used in this study).
Consider `O=C(N[C@H](CO)[C@H](O)c1ccc([N+](=O)[O-])cc1)C(Cl)Cl` [Chloramphenicol], for which the zone of inhibition at 30 µg/disc in [6] (30 μg/disk) came out at 30 mm; in assay [7] (30 μg/disk), 20 mm; in assay [8] (30 μg/disk), 40 mm; in assay [9] (30 μg/disk), 30 mm; in [10] (30 μg/disk), 34 mm.
As for `C[C@@H]1C[C@@H]([C@H](O)CC2CC(=O)NC(=O)C2)C(=O)[C@@H](C)C1` [Cycloheximide], the zone of inhibition at 30 µg/disc in [1] came out at 23 mm; in assay [2] (Candida, ATCC22019, read-out: Inhibition zone diameter of standard antimicrobial agents) it was 0 mm; in assay [3] (30 μg/disk) it was 22 mm; in assay [4] (30 μg/disk), 0 mm; in assay [5] (setting [11]) it was 32 mm; in the assay with Fusarium sp. (Fusarium), 30 mm. In assay [2], the “susceptibility of the strain” value is “resistant”.
With `CC(=O)O[C@H]1C[C@@]2(C)[C@@H](C[C@@H](O)[C@H]3[C@@]4(C)CC[C@@H](O)[C@@H](C)[C@@H]4CC[C@@]32C)/C1=C(\CCC=C(C)C)C(=O)O` [Fusidic acid], the zone of inhibition at 10 µg/disc is 23 mm in assay [6]; 10 mm in assay [7]; 0 mm in assay [8]; 0 mm in assay [9]; 20 mm in [10].
Regarding `NC[C@H]1O[C@H](O[C@H]2[C@H](O)[C@@H](O[C@H]3O[C@H](CO)[C@@H](O)[C@H](N)[C@H]3O)[C@H](N)C[C@@H]2N)[C@H](N)C[C@@H]1O` [Tobramycin], the zone of inhibition at 10 µg/disc in assay [6] was determined as 14 mm; in assay [7], 35 mm; in assay [8] it was 20 mm; in [9] it was 14 mm; in assay [10], 21 mm.

The zone of inhibition is the size of the clear area around the sample on an inoculated plate.
